Values quoted from earlier work in US20090202672A1, “AQUACULTURE FEED, PRODUCTS, AND METHODS COMPRISING BENEFICIAL FATTY ACIDS” (Monsanto Company, priority 2008, published 2009).

Tests used:
[1] = test system: cell line from turbot, Scopthalmus maximus; details: Ghioni et al 1999
[2] = test system: established cell line from Atlantic salmon, Salmo salar; details: Ghioni et al 2004

Conversion of SDA to EPA [1]: limited conversion of SDA to EPA
Bioconversion of SDA to EPA and DHA [2]: bioconversion of SDA to EPA, but not DHA
Compound: CC/C=C\C/C=C\C/C=C\C/C=C\CCCCC(=O)O [SDA, stearidonic acid]
